Experimental findings from publication PMC6270258, “Diosgenone Synthesis, Anti-Malarial Activity and QSAR of Analogues of This Natural Product” (Molecules, 2013) are described below.

SMILES strings stand for the structures. Read-outs that look alike come from different tables or passages of the source. Where only a bound is given, the exact number is not on record here.

Data set [1] deals with Plasmodium falciparum NF-54 strain. As to the kind of experiment: In vitro antiplasmodial activity, [3H]hypoxanthine incorporation, NF-54 strain. The format is cell-based. The following applies: 48 h, read-out: IC50 μM ± SD NF-54.
Experimental: (§1) A 10 mg/mL stock solution was prepared. […] A 50 μL sample was extracted from this solution and adjusted to 1,000 μL with RPMI-1640 without hypoxanthine until a final 500 μg/mL concentration was reached. The P. falciparum FcB-2 (Colombia) and NF54 (The Netherlands) strains were used for assessing anti-malarial activity.
(§2) Trager and Jensen’s method was used for culturing strains [24, 25]. The methods described by Desjardins et al. [26] were used for evaluating the structural analogs’ in vitro antiplasmodial activity, with some modifications. […] 1.0 µCi/mL of [3H] hypoxanthine (MP Biomedicals, Santa Ana, CA, USA) was added to each well and the plates were then incubated for 48 h at 37 °C in 5% CO2, 5% O2 in a balanced N2 atmosphere. Parasite DNA was harvested and radioactivity was determined by automatic TDCR liquid scintillation counter plate (Chameleon, Hidex Oy, Finland). Experiments were repeated twice with two or three replicates each. A nonlinear regression sigmoidal dose-response (variable slope) model was used to estimate concentration inhibiting 50% growth (IC50) values for each derivative.
The test system of data set [2] is HepG2-A16 human hepatoma cells. As to the kind of experiment: Cytotoxicity, MTT colorimetric test. The format is cell-based. Conditions: for SI (selectivity index): CC50 HepG2/IC50 parasite FCB-2. On the technique in general: Formazan colour is commonly taken as a measure of viable cells.
Experimental: (§3) Steroidal derivatives’ cytotoxicity regarding the HepG2-A16 cell line was evaluated by colorimetric test using 3-(4,5-dimethylthiazolyl-2)-2,5-diphenyltetrazolium bromide (MTT), as described by Mosmann [28]. […] An aliquot of each derivative dilution (100 μL, 1,000, 100, 10 and 1 μg/mL) was then added to the wells in triplicate. […] The DMSO diluent agent was evaluated in complete medium and negative controls (untreated cells) were included. Absorbance was measured at 550 nm and statistical Prism software version 5.0 (GraphPad Software Inc., La Jolla, CA, USA) was used for calculating toxic concentration (CC50). Amphotericin B was used as positive control in this assay.
A short description of data set [3]: Cytotoxicity, MTT colorimetric test. The format is cell-based, human. The following applies: human.
Experimental: as §3
Data set [4] deals with Plasmodium falciparum FCB-2 (chloroquine-resistant) strain. As to the kind of experiment: In vitro antiplasmodial activity, [3H]hypoxanthine incorporation, FCB-2 strain. The format is cell-based. The following applies: for RI (resistance index): IC50 FCB-2 (resistant strain)/IC50 NF-54 (sensitive strain); for antiplasmodial activity (in words): P. falciparum FCB-2 and NF-54 strains, compared to diosgenone or parent; for IC50: Plasmodium falciparum, 48 h.
Experimental: as §1, §2

Setting [5] is: P. falciparum NF-54 chloroquine-sensitive strain.
[6] abbreviates: P. falciparum FCB-2 chloroquine-resistant strain, read-out: IC50 μM ± SD FCB-2.
Where [7] appears, read: HepG2-A16 cells, MTT, 48 h, read-out: CC50.
The mark [8] stands for this setting: HepG2-A16 human hepatoma cells, HepG2-A16 cells, MTT, 48 h, read-out: CC50.

The term IC50 denotes the concentration at which inhibition is half-maximal. As usually defined, the CC50 is the concentration at which the toxic effect on the cells reaches its halfway point. In general, melting point refers to the temperature of the solid-liquid transition. The compound `CC1=CC[C@@]2(C)C(=C1)CC[C@H]1[C@@H]3C[C@@H]4O[C@]5(CC[C@@H](C)CO5)[C@@H](C)[C@@H]4[C@@]3(C)CC[C@@H]12` [Compound 7, (25R)-3-Methyl-spirostan-2,4-diene] came in with a melting point of 172 to 174 °C. The IC50 in data set [1] (setting [5]) was 34.6 ± 3.3 µM. Besides, the “SI (selectivity index)” value in data set [2] is recorded as 3.1. The compound also gave a CC50 at 48 h in data set [3] of 217 µM. For the same compound, in data set [4], the “RI (resistance index)” value came out at 2.0 and the “antiplasmodial activity (in words)” value was “marginal activity compared to diosgenone”. Further, in data set [4] (setting [6]), the IC50 turned out to be 70.4 ± 5.5 µM.
On to `CC(=O)OC[C@H](C)CCC(=O)[C@@H](C)[C@H]1C(OC(C)=O)C[C@H]2[C@@H]3CCC4=CC(=O)CC[C@]4(C)[C@H]3CC[C@]12C` (stereo partly drawn) [Compound 23, (25R)-16,26-Diacetoxy-4-cholesten-3,22-dione], for which the IC50 in data set [1] (setting [5]) was 0.6 ± 0.9 µM. Besides, in data set [2], the “cytotoxicity (in words)” value was “less toxic” and the “SI (selectivity index)” value was 16.2. This compound also returned a cytotoxic concentration (CC50) at 48 h in data set [3] of 281 µM. Also, in data set [4], the “RI (resistance index)” value is 28.8. Further, the IC50 in data set [4] (setting [6]) is 17.3 ± 1.4 µM.
In turn, `C[C@@H]1CC[C@@]2(OC1)O[C@H]1C[C@H]3[C@@H]4CCC5=CC(O)(Cc6ccccc6)CC[C@]5(C)[C@H]4CC[C@]3(C)[C@H]1[C@@H]2C` (stereo partly drawn) [Compound 8, (25R)-3-Benzyl-spirostan-4-en-3-ol] gave a melting point of 203 to 205 °C. The half-maximal inhibitory concentration (IC50) in data set [1] (setting [5]) is above 396 µM. Also, the 50% cytotoxic concentration (CC50) at 48 h in data set [3] is above 1980 µM. Moreover, the “antiplasmodial activity (in words)” value in data set [4] was “inactive against both P. falciparum strains”. Further, the IC50 in data set [4] (setting [6]) was above 396 µM.
On to `CC(=O)OC1C[C@H]2[C@@H]3CCC4CC(=O)CC[C@]4(C)[C@H]3CC[C@]2(C)[C@H]1[C@H](C)C(=O)CC[C@@H](C)CO` (stereo partly drawn) [Compound 22, (25R)-16-Acetoxy-26-hydroxy-cholestan-3,22-dione], for which the half-inhibitory concentration (IC50) in data set [1] (setting [5]) came out at 62.1 ± 8.9 µM; in data set [4] (setting [6]), 94.2 ± 5.3 µM. Further, in data set [2], the “SI (selectivity index)” value was 0.9. Moreover, the CC50 at 48 h in data set [3] stood at 82.4 µM. The “RI (resistance index)” value in data set [4] turned out to be 1.5.
In the case of `CC(=O)[C@H]1CC[C@H]2[C@@H]3CCC4=CC(=O)CC[C@]4(C)[C@H]3CC[C@]12C` [Compound 5, 4-Pregnene-3,20-dione, reference compound], in data set [1] (setting [5]), the IC50 amounted to 25.4 ± 1.6 µM. Further, the “SI (selectivity index)” value in data set [2] was 5.0. Further, in data set [3] (setting [7]), the CC50 at 48 h was 193 µM. In addition, in data set [4], the “RI (resistance index)” value came to 1.5 and the “antiplasmodial activity (in words)” value is “displayed antiplasmodial activity”. Besides, in data set [4] (setting [6]), the IC50 is 38.2 ± 1.2 µM.
For `CC(=O)OC1C[C@H]2[C@@H]3CCC4=CC(=O)CC[C@]4(C)[C@H]3CC[C@]2(C)[C@H]1[C@H](C)C(=O)CC[C@@H](C)C=O` (stereo partly drawn) [Compound 21, (25R)-16-Acetoxy-4-cholesten-3,22-dione-26-al], the IC50 in data set [1] (setting [5]) came out at 70.8 ± 0.8 µM; in data set [4] (setting [6]), 92.2 ± 12.3 µM. The “SI (selectivity index)” value in data set [2] turned out to be 4.6. Besides, the cytotoxic concentration (CC50) at 48 h in data set [3] was 424 µM. Besides, the “RI (resistance index)” value in data set [4] came out at 1.3.
With `C[C@H](C(=O)CC[C@@H](C)C=O)[C@H]1C(=O)C[C@H]2[C@@H]3CCC4=CC(=O)CC[C@]4(C)[C@H]3CC[C@]12C` [Compound 25], the IC50 in data set [1] was determined as 95.9 ± 8.3 µM; in data set [4] (read-out: IC50 μM ± SD FCB-2), 123 ± 12.8 µM. The “SI (selectivity index)” value in data set [2] turned out to be 0.4. The cytotoxic concentration (CC50) at 48 h in data set [3] (setting [7]) was 45.2 µM. In addition, the “RI (resistance index)” value in data set [4] is recorded as 1.3.
As for `C[C@@H]1CC[C@@]2(OC1)O[C@H]1C[C@H]3[C@@H]4CC=C5C[C@@H](O)CC[C@]5(C)[C@H]4CC[C@]3(C)[C@H]1[C@@H]2C` [Compound 1, (25R)-5-spirosten-3β-ol, reference compound], the IC50 in data set [1] (setting [5]) and in data set [4] (setting [6]) was above 482 µM in each case. The CC50 at 48 h in data set [3] (setting [7]) was 1110 µM. The “antiplasmodial activity (in words)” value in data set [4] is “lacked antiplasmodial activity”.
`Cc1ccc(S(=O)(=O)NN=C2C=C3CCC4C(CCC5(C)C4CC4OC6(CCC(C)CO6)C(C)C45)C3(C)CC2)cc1` [Compound 9, (25R)-3-p-Toluenehydrazine-spirostan-4-ene] gave a melting point of 148 to 150 °C. Moreover, the IC50 in data set [1] (setting [5]) is 52.5 ± 7.7 µM. The CC50 at 48 h in data set [3] is above 1170 µM. Moreover, in data set [4], the “RI (resistance index)” value is recorded as 1.1 and the “antiplasmodial activity (in words)” value was “marginal activity compared to diosgenone”. The half-inhibitory concentration (IC50) in data set [4] (setting [6]) is 56.1 ± 0.3 µM.
Take `CC(=O)[C@@]1(O)CC[C@H]2[C@@H]3CCC4=CC(=O)CC[C@]4(C)[C@H]3CC[C@@]21C` [Compound 6, 17-hydroxy-4-pregnene-3,20-dione, reference compound]: the IC50 in data set [1] was above 303 µM; in data set [4] (read-out: IC50 μM ± SD FCB-2, P. falciparum FCB-2 chloroquine-resistant strain, 48 h), above 303 µM. Also, the CC50 at 48 h in data set [3] (setting [8]) was above 1140 µM. In addition, the “RI (resistance index)” value in data set [4] was 1.0. In addition, in data set [4], the “antiplasmodial activity (in words)” value is “inactive”.
For the compound `C[C@@H]1CC[C@@]2(OC1)O[C@H]1C[C@H]3[C@@H]4CC=C5C=CCC[C@]5(C)[C@H]4CC[C@]3(C)[C@H]1[C@@H]2C` [Compound 19, (25R)-3,5-Spirostadiene], in data set [1] (setting [5]), the IC50 came to 370 ± 8.3 µM. Further, the “cytotoxicity (in words)” value in data set [2] (HepG2-A16 cells) was “nor toxic”. In addition, in data set [3] (setting [8]), the CC50 at 48 h is above 2520 µM. In data set [4], the “RI (resistance index)” value stood at 1.2 and the “antiplasmodial activity (in words)” value is “neither active”. Besides, the IC50 in data set [4] (setting [6]) was found to be 438 ± 12 µM.
As for `CC(=O)O[C@H]1CC[C@@]2(C)C(=CCC3C4C[C@H](OC(C)=O)C(C(C)C5=C(C(C)=O)C[C@@H](C)CO5)[C@@]4(C)CCC32)C1` (stereo partly drawn) [Compound 20, (25R)-23-Acetyl-3,16-diacetoxy-22,23-pyran-cholesta-5,22-diene], the half-maximal inhibitory concentration (IC50) in data set [1] (setting [5]) and in data set [4] (setting [6]) was above 380 µM each time. For the same compound, in data set [2], the “cytotoxicity (in words)” value is given as “nor toxic”. The compound also registered a CC50 at 48 h in data set [3] above 1900 µM. Further, the “antiplasmodial activity (in words)” value in data set [4] is “neither active”.
In the case of `C[C@@H]1CC[C@@]2(OC1)O[C@H]1C[C@H]3[C@@H]4CCC5=CC(=O)C=C[C@]5(C)[C@H]4CC[C@]3(C)[C@H]1[C@@H]2C` [Compound 12, (25R)-1,4-Spirostadien-3-one], the melting point was 181 to 183 °C. The IC50 in data set [1] (setting [5]) is 29.2 ± 1.1 µM. In data set [3], this compound had a CC50 at 48 h above 487 µM. Also, the “RI (resistance index)” value in data set [4] is given as 1.2. In data set [4] (setting [6]), the half-inhibitory concentration (IC50) worked out at 36 ± 2.3 µM.
Regarding `C[C@@H]1CC[C@@]2(OC1)O[C@H]1C[C@H]3[C@@H]4CCC5=CC(O)CC[C@]5(C)[C@H]4CC[C@]3(C)[C@H]1[C@@H]2C` (stereo partly drawn) [Compound 13, (25R)-4-Spirosten-3-ol], the IC50 in data set [1] (setting [5]) turned out to be 71.9 ± 0.3 µM. For the same compound, in data set [3] (setting [8]), the cytotoxic concentration (CC50) at 48 h was above 2410 µM. In addition, in data set [4], the “RI (resistance index)” value worked out at 0.9 and the “antiplasmodial activity (in words)” value was “marginal activity compared to diosgenone”. Also, the IC50 in data set [4] (setting [6]) amounted to 63.2 ± 0.3 µM.
For `C[C@@H]1[C@H](O)[C@@H](C)/C=C/C=C/C=C/C=C/C=C/C=C/C=C/[C@H](O[C@@H]2O[C@H](C)[C@@H](O)[C@H](N)[C@@H]2O)C[C@@H]2O[C@](O)(C[C@@H](O)C[C@@H](O)[C@H](O)CC[C@@H](O)C[C@@H](O)CC(=O)O[C@H]1C)C[C@H](O)[C@H]2C(=O)O` [AF-B, amphotericin B, reference compound], the half-maximal cytotoxic concentration (CC50) at 48 h in data set [3] (setting [8]) was found to be 39.6 µM.
In the case of `C[C@@H]1CC[C@@]2(OC1)O[C@H]1C[C@H]3[C@@H]4CCC5CC(=O)CC[C@]5(C)[C@H]4CC[C@]3(C)[C@H]1[C@@H]2C` (stereo partly drawn) [Compound 11, (25R)-Spirostan-3-one], the IC50 in data set [1] (setting [5]) and in data set [4] (setting [6]) was above 482 µM each time. Besides, in data set [3] (setting [8]), the CC50 at 48 h is above 916 µM. In addition, in data set [4], the “antiplasmodial activity (in words)” value is “inactive against both P. falciparum strains”.
